Experimental data reported in paper PMC4809600, “The Influence of Chronic Wound Extracts on Inflammatory Cytokine and Histatin Stability” (PLoS ONE, 2016).
Where no end group is shown, it is not given here.

Assays:
[1] = Stability in chronic wound extracts (CWE), capillary zone electrophoresis; assay type: in vitro ADME, human; conditions: 37°C, CZE; for Percentage intact, CWE 2h / Percentage intact, CWE 4h / Percentage intact, CWE 8h / Percentage intact, CWE 16h / Percentage intact, CWE 24h / Percentage intact, CWE 48h / Percentage intact, CWE 72h / Percentage intact, CWE 96h: 1 mg/ml in PBS mixed 1:1 with CWE (1 mg/ml protein, pool of 5 donors) in PBS, UV 200 nm, ratio to imidazole
Description: (§1) Debridement tissue was obtained from chronic ulcers of 15 patients with therapy resistant (arterio-venous) leg ulcers, according to procedures described earlier. In brief, moist, easily removable debridement material, essentially blood free, was collected from the ulcer surface and divided equally into two different solutions: (i) PBS (B. Braun, Melsungen, Germany), (ii) PBS with protease inhibitor cocktail (PIC) (1:100; v/v) (Sigma-Aldrich, Steinheim, Germany). The mixtures were gently shaken for 1 h at 4°C to elute proteins and centrifuged; the supernatants were stored at -80°C. Total protein content of the supernatant was measured using the BioRad Protein Assay (BioRad Laboratories, Hercules, California, USA) essentially as described by the supplier. Samples were diluted to 1 mg/ml protein and extracts of five different donors were pooled; three different pools of five donors were used in all experiments. The samples are referred to as chronic wound extracts (CWE).
(§2) To determine the stability of the different peptides in CWE, histatins and cytokines were dissolved in PBS at 1 mg/ml. Histatins and cytokines were incubated in a 1:1 ratio with (i) PBS, (ii) CWE in PBS, or (iii) CWE in PBS containing PIC, in a total volume of 25 μl. Imidazole (Sigma-Aldrich) was added as an internal standard, with a final concentration of 100 μg/ml. The mixtures were incubated at 37°C, and samples were taken at 0, 24, 48, 72 and 96 h. For histatins containing mixtures, additional samples were taken after 2, 4, 8 and 16 h of incubation.
(§3) The samples were analyzed with a BioFocus 2000 capillary zone electrophoresis system (Bio-Rad Laboratories, Hercules, CA, USA) equipped with an uncoated fused-silica capillary of internal diameter 50 μm and a length of 24 cm. Samples were loaded by pressure injection (5 psi/sec). Separation was performed at 10 kV (cathode at the detector side) at 20°C using 0.1 M phosphate buffer (pH 2.5) as electrolyte and monitored continuously at 200 nm. Peaks were quantified with the BioFocus Integrator software. In order to quantify the percentage of intact peptides remaining after incubation with CWE, the ratios of histatins, rhIL-6 or rhCXCL8 to internal standard was set at 100% at 0h, and the ratios at the other incubation time points were related to this.

[2] = Stability in CWE with protease inhibitor cocktail (PIC), capillary zone electrophoresis; assay type: in vitro ADME, human; conditions: 37°C, CZE, 0 h = 100%; for Percentage intact, CWE + PIC 2h / Percentage intact, CWE + PIC 4h / Percentage intact, CWE + PIC 8h / Percentage intact, CWE + PIC 16h / Percentage intact, CWE + PIC 24h / Percentage intact, CWE + PIC 48h / Percentage intact, CWE + PIC 72h / Percentage intact, CWE + PIC 96h: 1 mg/ml in PBS mixed 1:1 with CWE (1 mg/ml protein, pool of 5 donors) in PBS containing PIC (final 1:140 v/v), ratio to imidazole
Description: as §1, §2, §3

## RKFHEKHHSHREFPFYGDYGSNYLYDN [Hst2]
[1]; 0 h = 100%, experiment 1 of 3
  Percentage intact, CWE 2h: 96.21%
  Percentage intact, CWE 4h: 78.5338%
  Percentage intact, CWE 16h: 14.9136%
[1]; 0 h = 100%, experiment 2 of 3
  Percentage intact, CWE 2h: 97.4179%
  Percentage intact, CWE 4h: 80.0345%
  Percentage intact, CWE 16h: 27.664%
  Percentage intact, CWE 48h: 0.0001%
  Percentage intact, CWE 72h: 0.0001%
  Percentage intact, CWE 96h: 0.0001%
[1]; 0 h = 100%, experiment 3 of 3
  Percentage intact, CWE 2h: 80.1639%
  Percentage intact, CWE 4h: 54.5442%
  Percentage intact, CWE 16h: 7.724%
  Percentage intact, CWE 48h: 0.0001%
  Percentage intact, CWE 72h: 0.0001%
  Percentage intact, CWE 96h: 0.0001%
[1]; 8 h, 0 h = 100%, experiment 1 of 3
  Percentage intact, CWE 8h: 57.5027%
[1]; 8 h, 0 h = 100%, experiment 2 of 3
  Percentage intact, CWE 8h: 66.6666%
[1]; 8 h, 0 h = 100%, experiment 3 of 3
  Percentage intact, CWE 8h: 34.5662%
[1]; 24 h, 0 h = 100%, experiment 1 of 3
  Percentage intact, CWE 24h: 4.675%
[1]; 24 h, 0 h = 100%, experiment 2 of 3
  Percentage intact, CWE 24h: 5.495%
[1]; 24 h, 0 h = 100%, experiment 3 of 3
  Percentage intact, CWE 24h: 8.834%
[1]; human, chronic wound extracts (CWE), 1 mg/ml in PBS mixed 1:1 with CWE (1 mg/ml protein, pools of 5 donors), 8 h, 0 h = 100%, mean of 3 independent experiments, read-out: Original amount of peptide remaining intact after 8 h in CWE
  remaining at 8 h, 0.5 mg/ml: 53%
[1]; human, chronic wound extracts (CWE), 1 mg/ml in PBS mixed 1:1 with CWE (1 mg/ml protein, pools of 5 donors), 24 h, 0 h = 100%, mean of 3 independent experiments, read-out: Original amount of peptide remaining intact after 24 h in CWE
  remaining at 24 h, 0.5 mg/ml: 6%
[1]; human, chronic wound extracts (CWE), incubation with chronic wound extracts, 8 h, read-out: Breakdown (degradation) in CWE in 8 h
  metabolised at 8 h, 0.5 mg/ml: ~50%
[2]; experiment 1 of 3
  Percentage intact, CWE + PIC 2h: 93.4426%
  Percentage intact, CWE + PIC 4h: 91.5351%
  Percentage intact, CWE + PIC 8h: 85.6684%
  Percentage intact, CWE + PIC 16h: 76.054%
  Percentage intact, CWE + PIC 48h: 70.9832%
  Percentage intact, CWE + PIC 72h: 69.8915%
  Percentage intact, CWE + PIC 96h: 63.8972%
[2]; experiment 2 of 3
  Percentage intact, CWE + PIC 2h: 92.5142%
  Percentage intact, CWE + PIC 4h: 92.7977%
  Percentage intact, CWE + PIC 8h: 89.4382%
  Percentage intact, CWE + PIC 16h: 80.3459%
  Percentage intact, CWE + PIC 48h: 66.2527%
  Percentage intact, CWE + PIC 72h: 66.4949%
  Percentage intact, CWE + PIC 96h: 62.3087%
[2]; experiment 3 of 3
  Percentage intact, CWE + PIC 2h: 89.0301%
  Percentage intact, CWE + PIC 4h: 86.7184%
  Percentage intact, CWE + PIC 8h: 85.0239%
  Percentage intact, CWE + PIC 16h: 78.2959%
  Percentage intact, CWE + PIC 48h: 75.4922%
  Percentage intact, CWE + PIC 72h: 68.9587%
  Percentage intact, CWE + PIC 96h: 62.2105%
[2]; 24 h, experiment 1 of 3
  Percentage intact, CWE + PIC 24h: 76.7074%
[2]; 24 h, experiment 2 of 3
  Percentage intact, CWE + PIC 24h: 74.947%
[2]; 24 h, experiment 3 of 3
  Percentage intact, CWE + PIC 24h: 84.5492%
[2]; human, with protease inhibitor cocktail (PIC), CWE with protease inhibitor cocktail (final 1:140 v/v), 24 h, mean of 3 independent experiments, read-out: Remaining fraction of intact peptide after 24 h in CWE + PIC
  remaining at 24 h, 0.5 mg/ml: 78%
